Columns and labels:
HepG2 cells and mice = assay: Gene expression microarrays (GEM) of LXR agonist-treated HepG2 cells and mice; type: in vivo, mouse; details: fold increase vs control; mice 5 mg/kg p.o. 7 d
Procedure: Total RNA extraction and purification for Northern blot analysis was accomplished using the TRI reagent (Molecular Research Center).
To understand the mechanism whereby LXR agonist increased plasma triglycerides, changes in global gene expression in response to LXR agonist treatment were assessed by gene expression micrarrays (GEM) and Northern blot analysis. The GEM experiments were carried out using RNA derived from control and LXR agonist-treated HepG2 cells and mice. […] In addition, a prominent subset of >20 fatty acid metabolism-associated genes was increased by LXR agonist. This subset included fatty acid synthase, carnitine palmitoyltransferase 1, acyl-CoA-binding protein, acyl glycerol-3 phosphate acyltransferase, fatty acid amide hydrolase, acyl carrier protein, fatty acid binding and transport proteins, and colipase, a small protein cofactor required by lipase for the efficient hydrolysis of dietary lipid. Up-regulation of liver and intestinal phosphoethanolamine cytidylyltransferase, a key regulatory enzyme in the CDP-ethanolamine pathway for phosphatidylethanolamine synthesis, was also noted.

[1] = system: LXRα/β−/− mice liver mRNA; assay: Northern blot analysis of hepatic mRNA in LXRα/β−/− mice; type: in vivo, mouse
Procedure: (§1) FIG. 10. […] Pooled plasma (50 μL from each of five mice per group) was fractionated and lipids analyzed as described. Shown are the concentrations for (A) FPLC triglyceride, (B) FPLC phospholipid, and (C) hepatic triglyceride. (D) Northern blot analysis of hepatic SREEP-I, SREBP-2, SCD-1, FAS, and ACC mRNA levels.

LXRα = target: T1, LXRα (Homo sapiens, UniProt Q13133); details: fold relative to DMSO
T1 sequence (Q13133 1-447): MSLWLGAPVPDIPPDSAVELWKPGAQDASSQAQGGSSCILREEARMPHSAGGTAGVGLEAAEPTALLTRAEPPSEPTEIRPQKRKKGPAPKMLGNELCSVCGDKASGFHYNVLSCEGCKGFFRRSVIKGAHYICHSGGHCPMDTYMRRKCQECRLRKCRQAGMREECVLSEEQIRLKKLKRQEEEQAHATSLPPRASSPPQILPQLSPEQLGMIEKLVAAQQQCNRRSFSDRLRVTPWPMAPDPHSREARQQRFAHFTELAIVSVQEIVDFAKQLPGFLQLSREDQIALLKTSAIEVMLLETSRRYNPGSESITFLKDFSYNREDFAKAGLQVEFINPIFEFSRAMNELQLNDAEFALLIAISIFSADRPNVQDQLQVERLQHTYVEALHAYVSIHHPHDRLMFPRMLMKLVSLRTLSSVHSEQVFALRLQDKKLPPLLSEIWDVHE

LXRα/β−/− mice = assay: Plasma and hepatic lipid analysis in LXRα/β−/− mice; type: in vivo, mouse
Procedure: as §1
C57BL/6 mice (Charles River Laboratories) were between 6 and 10 wk old and weighed ˜20-30 g at the initiation of treatment. Golden Syrian Hamsters (Harlan Sprague-Dawley) were between 12 and 16 wk old (80-150 g). […] LXRα and β−/− mice were reared at the University of Texas Southwestern (UTSW) Medical Center at Dallas in accordance with the Institutional Animal Care and Research Advisory Committee at the UTSW Medical Center.
FPLC of plasma lipoproteins was accomplished using 200 μL aliquots of pooled plasma (from three to five animals) and fractionated on Superose 6 columns (Pharmacia). Cholesterol, triglyceride, and phospholipid concentrations in the fractions were determined enzymatically with reagents from Boehringer, Sigma, and Wako, respectively.

## O=S(=O)(c1ccccc1)N(CC(F)(F)F)c1ccc(C(O)(C(F)(F)F)C(F)(F)F)cc1 [T0901317, N-(2,2,2-trifluoro-ethyl)-N-[4-(2,2,2-trifluoro-1-hydroxy-1-trifluoromethyl-ethyl)-phenyl]-benzenesulfonamide]
HepG2 cells and mice
  SREBP-1 expression (GEM): twofold
  fatty acid synthase expression (GEM): twofold
[1]
  regulation of the SREBP-1, SCD-1, FAS, or ACC gene: lack of regulation
LXRα
  induction of transcriptional activity of LXRα: eightfold
LXRα/β−/− mice; LXRα/β−/− mice vs vehicle-treated LXRα/β−/−
  total plasma triglyceride: scant increases
LXRα/β−/− mice; LXRα/β−/− mice, 7 d
  hepatic triglyceride levels: no significant elevation
  plasma VLDL-triglyceride: relatively minute increase

Reference: US20020048572A1, “Treatment of hypertriglyceridemia and other conditions using LXR modulators” (priority 2000, published 2002)
